Data taken from patent US6822100B2 (Bristol-Myers Squibb Company, priority 2001, dated 2004).
Counter-ions that a name gives are not always drawn.

Molecular target: T1, human serotonin transporters (Homo sapiens, UniProt P31645)
T1 construct: expressed in transfected cells; host or cells: HEK-293 (HEK-hSERT), membrane homogenates
Experiment: Serotonin Transporter Binding Assay
Settings: HEK-hSERT cell membranes, 1 nM [3H]-citalopram, Cheng and Prusoff; read-out: SERT Ki
Experimental: HEK-293 cells that stably express human serotonin transporters (HEK-hSERT cells) were grown at 37° C. in 5% CO2 as a monolayer in medium consisting of EMEM supplemented with 10% fetal bovine serum and G418 sulfate (500 μg/ml). To prepare membranes for radioligand binding experiments, cells were rinsed twice with phosphate-buffered saline (138 mM NaCl, 4.1 mM KCl, 5.1 mM Na2PO4, 1.5 mM […], 11.1 mM glucose, pH 7.4). Cells were transferred from plates to polypropylene tubes (16×100 mm), centrifuged at 1,200×g for 5 min and were frozen at −80° C. until assay. Following centrifugation, pellets were resuspended by homogenization in buffer consisting of 50 mM Tris (pH 7.7 at 25° C.), 120 mM NaCl and 5 mM KCl and then centrifuged at 32,000×g for 10 min. Following centrifugation, supernatants were discarded and pellets were resuspended in buffer consisting of 50 mM Tris (pH 7.4 at 25° C.), 150 mM NaCl and 5 mM KCl. Membrane homogenates (200 μl/plate) were incubated with 1 nM [^3H]-citalopram (specific activity=85 Ci/mmol) and increasing concentrations of test compounds for 1 hr at 25° C. in a total volume of 250 μl. The assay buffer consisted of 50 mM Tris (pH 7.4 at 25° C.), 120 mM NaCl and 5 mM KCl (pH 7.4 with conc. HCl). Plates were incubated for 1 hr at 25° C., then filtered through 0.5% PEI treated Whatman GF/B filters using a Brandel cell harvester. Filters were washed three times with 3 ml of ice-cold tris wash buffer. Non-specific binding was defined with 10 μM fluoxetine. Amount of radioligand bound in the presence and absence of competitor was analyzed by plotting (−)log drug concentration versus the amount of radioligand specifically bound. The midpoint of the displacement curve (IC50, nM), signifies the potency. Ki values were calculated using the method of Cheng and Prusoff (1973).

T1 sequence (P31645 whole entry): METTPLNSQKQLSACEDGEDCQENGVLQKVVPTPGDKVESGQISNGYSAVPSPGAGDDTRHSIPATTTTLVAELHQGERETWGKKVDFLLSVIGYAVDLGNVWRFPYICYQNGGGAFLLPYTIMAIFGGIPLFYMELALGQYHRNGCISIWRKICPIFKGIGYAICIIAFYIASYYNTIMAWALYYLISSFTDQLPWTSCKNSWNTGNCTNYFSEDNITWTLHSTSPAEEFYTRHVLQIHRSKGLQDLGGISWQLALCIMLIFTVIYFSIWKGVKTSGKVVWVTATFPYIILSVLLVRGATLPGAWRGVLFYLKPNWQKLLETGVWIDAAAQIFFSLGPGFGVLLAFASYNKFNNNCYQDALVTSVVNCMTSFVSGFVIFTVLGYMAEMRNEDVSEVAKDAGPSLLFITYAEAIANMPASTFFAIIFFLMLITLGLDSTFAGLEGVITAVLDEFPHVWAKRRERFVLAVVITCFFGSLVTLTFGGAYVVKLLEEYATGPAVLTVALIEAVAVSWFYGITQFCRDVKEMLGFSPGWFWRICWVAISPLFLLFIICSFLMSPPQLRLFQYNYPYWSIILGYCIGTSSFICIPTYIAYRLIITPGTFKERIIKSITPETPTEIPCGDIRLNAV

Compound	Ki [µM]
CCNC[C@H]1C[C@@H]1c1c[nH]c2cc(C(F)(F)F)ccc12 (racemic) [Example 156, Ethyl-[2-(6-trifluoromethyl-1H-indol-3-yl)-cyclopropylmethyl]-amine]	0.1 to 1
CN(C)CC1CC1c1csc2ccccc12 (single isomer, unassigned; (-)) [Example 190A, (−)-(2-Benzo[b]thiophen-3-yl-cyclopropylmethyl)-dimethyl-amine]	0.1 to 1
CN(C)CC1CC1c1ccc2cc[nH]c2c1 (stereo not drawn) [Example 191, [2-(1H-Indol-6-yl)-cyclopropylmethyl]-dimethyl-amine]	0.01 to 0.1
CCN(C)CC1CC1c1csc2ccccc12 (stereo not drawn) [Example 170, (2-Benzo[b]thiophen-3-yl-cyclopropylmethyl)-ethyl-methyl-amine]	0.1 to 1
CNCC1CC1c1csc2ccccc12 (stereo not drawn) [Example 168, (2-Benzo[b]thiophen-3-yl-cyclopropylmethyl)-methyl-amine]	0.01 to 0.1
CCN(CC)CC1CC1c1csc2ccccc12 (stereo not drawn) [Example 171, (2-Benzo[b]thiophen-3-yl-cyclopropylmethyl)-diethyl-amine]	0.1 to 1
CN(C)C[C@H]1C[C@@H]1c1cn(C)c2ccc(C#N)cc12 [Example 188]	0.001 to 0.01
C[N+](C)(C)C[C@H]1C[C@@H]1c1c[nH]c2ccc(C#N)cc12 [Example 187, S,S-Trans-2-[5-Cyanoindol-3-yl]-1-(trimethylammoniummethyl)cyclopropane trifluoroacetate]	< 0.001
CN(C)CC1CC1c1ccc2c(C#N)c[nH]c2c1 (stereo not drawn) [Example 192, 6-(2-Dimethylaminomethyl-cyclopropyl)-1H-indole-3-carbonitrile]	0.001 to 0.01
CN(C)CC1CC1c1ccc2[nH]cc(Br)c2c1 (stereo not drawn) [Example 150, N,N-dimethyl-2-(3-bromoindol-5-yl)cycloprop-1-yl methylamine]	0.01 to 0.1
CCN(CC)CCCC1CC1c1c[nH]c2ccc(C#N)cc12 (stereo not drawn) [Example 177, Trans-2-[5-cyanoindol-3-yl]1-(3-(N,N-diethylamino)propyl)cyclopropane]	0.01 to 0.1
CNC[C@H]1C[C@@H]1c1c[nH]c2ccc(C(F)(F)F)cc12 (racemic) [Example 154, Methyl-[2-(5-trifluoromethyl-1H-indol-3-yl)-cyclopropylmethyl]-amine]	0.01 to 0.1
CCN(C)C[C@H]1C[C@@H]1c1c[nH]c2cc(C#N)ccc12 (racemic) [Example 161, 3-{2-[(Ethyl-methyl-amino)-methyl]-cyclopropyl}-1H-indole-6-carbonitrile]	0.1 to 1
CCN(C)CC1CC1c1n[nH]c2ccc(C#N)cc12 (stereo not drawn) [Example 164, 3-{2-[(Ethyl-methyl-amino)-methyl]-cyclopropyl}-1H-indazole-5-carbonitrile]	0.1 to 1
CCNC[C@H]1C[C@@H]1c1c[nH]c2cc(C#N)ccc12 (racemic) [Example 159, 3-(2-Ethylaminomethyl-cyclopropyl)-1H-indole-6-carbonitrile]	0.1 to 1
CN(C)CC1CC1c1ccc2[nH]cc(C#N)c2c1 (stereo not drawn) [Example 151, 5-(2-Dimethylaminomethyl-cyclopropyl)-1H-indole-3-carbonitrile]	0.001 to 0.01
N#Cc1ccc2[nH]nc(C3CC3CN3CCCC3)c2c1 (stereo not drawn) [Example 166, 3-(2-Pyrrolidin-1-ylmethyl-cyclopropyl)-1H-indazole-5-carbonitrile]	0.1 to 1
c1ccc2c(C3CC3CN3CCCC3)csc2c1 (stereo not drawn) [Example 172, 1-(2-Benzo[b]thiophen-3-yl-cyclopropylmethyl)-pyrrolidine]	0.1 to 1
CN(C)CCC1CC1c1c[nH]c2ccc(C#N)cc12 (stereo not drawn) [Example 193, 3-[2-(2-Dimethylamino-ethyl)-cyclopropyl]-1H-indole-5-carbonitrile]	0.001 to 0.01
CN(Cc1ccccc1)C[C@H]1C[C@@H]1c1c[nH]c2cc(C(F)(F)F)ccc12 (racemic) [Example 157, Benzyl-methyl-[2-(6-trifluoromethyl-1H-indol-3-yl)-cyclopropylmethyl]-amine]	0.1 to 1
CCn1cc([C@H]2C[C@@H]2CN(C)C)c2cc(C#N)ccc21 [Example 189]	0.001 to 0.01
